# Columns and labels:
# [1] = target: Cyclin-dependent kinase 5 (Homo sapiens) (UniProt Q00535); experiment: Selectivity for cyclin-dependent kinase-5, CDK5
# [2] = target: Tyrosine-protein kinase CSK (Homo sapiens) (UniProt P41240); experiment: Selectivity over Protein kinase CSK (100-500)
# [3] = Selectivity towards Protein kinase, EST-PT1
# [4] = target: Tyrosine-protein kinase Fyn (Homo sapiens) (UniProt P06241); experiment: Selectivity for Fyn kinase
# [5] = target: Protein kinase C (PKC) (Homo sapiens) (UniProt O94806+P41743+P17252+P05129+Q05655+P05771+Q05513+Q02156+P24723+Q15139+Q04759); experiment: Selectivity for Protein kinase, PKC; format: protein assay
# [6] = target: Wee1-like protein kinase (Homo sapiens) (UniProt P30291); experiment: Selectivity for Protein kinase WEE1
# [7] = target: Casein kinase II (Homo sapiens) (UniProt P67870+P68400+P19784); experiment: Selectivity for casein kinase II, CK2; format: protein-complex assay
# [8] = target: T1, Serine/threonine-protein kinase 3 (Homo sapiens) (UniProt Q13188); experiment: Selectivity for Serine/threonine kinase 3
# T1 sequence (whole entry): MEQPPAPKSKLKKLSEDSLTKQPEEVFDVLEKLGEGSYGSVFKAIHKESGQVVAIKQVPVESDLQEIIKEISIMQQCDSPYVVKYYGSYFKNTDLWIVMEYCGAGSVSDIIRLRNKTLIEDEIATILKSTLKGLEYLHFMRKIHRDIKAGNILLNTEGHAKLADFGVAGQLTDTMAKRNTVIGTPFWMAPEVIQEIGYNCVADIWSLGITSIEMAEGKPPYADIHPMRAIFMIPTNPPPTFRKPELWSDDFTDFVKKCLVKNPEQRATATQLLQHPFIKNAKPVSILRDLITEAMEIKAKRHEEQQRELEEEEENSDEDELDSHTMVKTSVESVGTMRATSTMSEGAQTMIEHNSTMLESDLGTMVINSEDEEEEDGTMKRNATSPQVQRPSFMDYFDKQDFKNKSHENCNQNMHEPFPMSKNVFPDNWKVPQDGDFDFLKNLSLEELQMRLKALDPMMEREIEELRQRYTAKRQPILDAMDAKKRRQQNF
# [9] = target: DNA-dependent protein kinase catalytic subunit (Homo sapiens) (UniProt P78527); experiment: Selectivity for Protein kinase, DNAPK
# [10] = target: Glycogen synthase kinase-3 beta (Homo sapiens) (UniProt P49841); experiment: Selectivity for GSK3-beta
# [11] = target: Mitogen-activated protein kinase 3 (Homo sapiens) (UniProt P27361); experiment: Selectivity for mitogen-activated protein kinase, ERK1
# [12] = target: T2, Scaffold protein ILK (Homo sapiens) (UniProt Q13418); experiment: Selectivity towards Protein kinase, ILK1
# T2 sequence (whole entry): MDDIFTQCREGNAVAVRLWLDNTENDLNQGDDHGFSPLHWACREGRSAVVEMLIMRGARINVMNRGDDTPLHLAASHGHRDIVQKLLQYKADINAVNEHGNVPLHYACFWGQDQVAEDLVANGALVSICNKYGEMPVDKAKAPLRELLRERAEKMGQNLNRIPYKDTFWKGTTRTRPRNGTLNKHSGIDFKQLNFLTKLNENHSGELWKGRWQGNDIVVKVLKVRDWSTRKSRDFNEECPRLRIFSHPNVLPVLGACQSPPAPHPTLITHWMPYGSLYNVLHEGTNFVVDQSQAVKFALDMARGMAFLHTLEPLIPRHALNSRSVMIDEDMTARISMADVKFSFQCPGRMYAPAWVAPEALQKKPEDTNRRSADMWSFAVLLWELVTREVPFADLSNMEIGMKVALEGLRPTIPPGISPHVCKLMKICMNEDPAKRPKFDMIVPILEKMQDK
# [13] = target: T3, Cyclin-dependent kinase 2 (Homo sapiens, UniProt P24941); experiment: Selectivity for cyclin-dependent kinase 2, CDK2
# [14] = target: Serine/threonine-protein kinase PAK 3 (Homo sapiens) (UniProt O75914); experiment: Selectivity for p21-activated kinase-3, PAK3
# [15] = target: Cyclin-dependent kinase 1 (Homo sapiens) (UniProt P06493); experiment: Selectivity for cyclin-dependent kinase-1, CDK1
# [16] = target: Serine/threonine-protein kinase pim-1 (Homo sapiens) (UniProt P11309); experiment: Selectivity for pim-1 oncogene
# [17] = Selectivity towards Protein phosphatase, TC-PTP
# [18] = target: Tyrosine-protein kinase Lck (Homo sapiens) (UniProt P06239); experiment: Selectivity p56 Lck tyrosine kinase
# [19] = target: cAMP-dependent protein kinase (PKA) (Homo sapiens) (UniProt P22694+P17612+P22612); experiment: Selectivity for PKA; format: protein assay
# [20] = target: Serine/threonine-protein kinase pim-1 (Homo sapiens) (UniProt P11309); experiment: Selectivity towards Protein kinase, PIM1
# [21] = Compound was tested for its relative bone-targeting affinity using a hydroxyapatite column
# [22] = target: Receptor-type tyrosine-protein phosphatase F (Homo sapiens) (UniProt P10586); experiment: Selectivity towards Protein phosphatase, LAR
# [23] = Selectivity towards Protein phosphatase, MEG2
# [24] = target: T4, Tyrosine-protein phosphatase non-receptor type 1 (Homo sapiens) (UniProt P18031); experiment: Selectivity towards Protein phosphatase, PTP1b
# T4 sequence (whole entry): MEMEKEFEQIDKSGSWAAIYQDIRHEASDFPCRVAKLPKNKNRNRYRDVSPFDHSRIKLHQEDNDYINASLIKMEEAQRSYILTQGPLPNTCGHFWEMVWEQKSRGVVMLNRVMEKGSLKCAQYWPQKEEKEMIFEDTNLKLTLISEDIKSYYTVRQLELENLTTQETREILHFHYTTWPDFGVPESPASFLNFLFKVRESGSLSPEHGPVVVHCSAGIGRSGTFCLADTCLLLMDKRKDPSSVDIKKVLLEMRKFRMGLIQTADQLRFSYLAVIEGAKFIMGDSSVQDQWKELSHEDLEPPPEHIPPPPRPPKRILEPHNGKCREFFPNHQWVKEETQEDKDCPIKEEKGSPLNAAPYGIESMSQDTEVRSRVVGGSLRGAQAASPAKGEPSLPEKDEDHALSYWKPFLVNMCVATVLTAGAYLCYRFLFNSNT
# [25] = target: T3, Cyclin-dependent kinase 2; experiment: Inhibition of Cyclin-dependent kinase 2 (CDK2)
# Serine/threonine-protein kinase pim-1 (Homo sapiens), sequence (P11309 whole entry, looked up): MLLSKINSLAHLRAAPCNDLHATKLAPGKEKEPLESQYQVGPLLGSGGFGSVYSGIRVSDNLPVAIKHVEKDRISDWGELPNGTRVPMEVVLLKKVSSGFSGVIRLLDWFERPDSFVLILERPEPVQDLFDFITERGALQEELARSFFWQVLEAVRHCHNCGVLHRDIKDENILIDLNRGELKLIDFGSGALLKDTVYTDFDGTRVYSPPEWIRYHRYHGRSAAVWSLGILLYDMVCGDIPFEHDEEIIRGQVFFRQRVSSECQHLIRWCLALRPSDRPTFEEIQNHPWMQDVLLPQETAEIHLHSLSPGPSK
# DNA-dependent protein kinase catalytic subunit (Homo sapiens), sequence (P78527 whole entry): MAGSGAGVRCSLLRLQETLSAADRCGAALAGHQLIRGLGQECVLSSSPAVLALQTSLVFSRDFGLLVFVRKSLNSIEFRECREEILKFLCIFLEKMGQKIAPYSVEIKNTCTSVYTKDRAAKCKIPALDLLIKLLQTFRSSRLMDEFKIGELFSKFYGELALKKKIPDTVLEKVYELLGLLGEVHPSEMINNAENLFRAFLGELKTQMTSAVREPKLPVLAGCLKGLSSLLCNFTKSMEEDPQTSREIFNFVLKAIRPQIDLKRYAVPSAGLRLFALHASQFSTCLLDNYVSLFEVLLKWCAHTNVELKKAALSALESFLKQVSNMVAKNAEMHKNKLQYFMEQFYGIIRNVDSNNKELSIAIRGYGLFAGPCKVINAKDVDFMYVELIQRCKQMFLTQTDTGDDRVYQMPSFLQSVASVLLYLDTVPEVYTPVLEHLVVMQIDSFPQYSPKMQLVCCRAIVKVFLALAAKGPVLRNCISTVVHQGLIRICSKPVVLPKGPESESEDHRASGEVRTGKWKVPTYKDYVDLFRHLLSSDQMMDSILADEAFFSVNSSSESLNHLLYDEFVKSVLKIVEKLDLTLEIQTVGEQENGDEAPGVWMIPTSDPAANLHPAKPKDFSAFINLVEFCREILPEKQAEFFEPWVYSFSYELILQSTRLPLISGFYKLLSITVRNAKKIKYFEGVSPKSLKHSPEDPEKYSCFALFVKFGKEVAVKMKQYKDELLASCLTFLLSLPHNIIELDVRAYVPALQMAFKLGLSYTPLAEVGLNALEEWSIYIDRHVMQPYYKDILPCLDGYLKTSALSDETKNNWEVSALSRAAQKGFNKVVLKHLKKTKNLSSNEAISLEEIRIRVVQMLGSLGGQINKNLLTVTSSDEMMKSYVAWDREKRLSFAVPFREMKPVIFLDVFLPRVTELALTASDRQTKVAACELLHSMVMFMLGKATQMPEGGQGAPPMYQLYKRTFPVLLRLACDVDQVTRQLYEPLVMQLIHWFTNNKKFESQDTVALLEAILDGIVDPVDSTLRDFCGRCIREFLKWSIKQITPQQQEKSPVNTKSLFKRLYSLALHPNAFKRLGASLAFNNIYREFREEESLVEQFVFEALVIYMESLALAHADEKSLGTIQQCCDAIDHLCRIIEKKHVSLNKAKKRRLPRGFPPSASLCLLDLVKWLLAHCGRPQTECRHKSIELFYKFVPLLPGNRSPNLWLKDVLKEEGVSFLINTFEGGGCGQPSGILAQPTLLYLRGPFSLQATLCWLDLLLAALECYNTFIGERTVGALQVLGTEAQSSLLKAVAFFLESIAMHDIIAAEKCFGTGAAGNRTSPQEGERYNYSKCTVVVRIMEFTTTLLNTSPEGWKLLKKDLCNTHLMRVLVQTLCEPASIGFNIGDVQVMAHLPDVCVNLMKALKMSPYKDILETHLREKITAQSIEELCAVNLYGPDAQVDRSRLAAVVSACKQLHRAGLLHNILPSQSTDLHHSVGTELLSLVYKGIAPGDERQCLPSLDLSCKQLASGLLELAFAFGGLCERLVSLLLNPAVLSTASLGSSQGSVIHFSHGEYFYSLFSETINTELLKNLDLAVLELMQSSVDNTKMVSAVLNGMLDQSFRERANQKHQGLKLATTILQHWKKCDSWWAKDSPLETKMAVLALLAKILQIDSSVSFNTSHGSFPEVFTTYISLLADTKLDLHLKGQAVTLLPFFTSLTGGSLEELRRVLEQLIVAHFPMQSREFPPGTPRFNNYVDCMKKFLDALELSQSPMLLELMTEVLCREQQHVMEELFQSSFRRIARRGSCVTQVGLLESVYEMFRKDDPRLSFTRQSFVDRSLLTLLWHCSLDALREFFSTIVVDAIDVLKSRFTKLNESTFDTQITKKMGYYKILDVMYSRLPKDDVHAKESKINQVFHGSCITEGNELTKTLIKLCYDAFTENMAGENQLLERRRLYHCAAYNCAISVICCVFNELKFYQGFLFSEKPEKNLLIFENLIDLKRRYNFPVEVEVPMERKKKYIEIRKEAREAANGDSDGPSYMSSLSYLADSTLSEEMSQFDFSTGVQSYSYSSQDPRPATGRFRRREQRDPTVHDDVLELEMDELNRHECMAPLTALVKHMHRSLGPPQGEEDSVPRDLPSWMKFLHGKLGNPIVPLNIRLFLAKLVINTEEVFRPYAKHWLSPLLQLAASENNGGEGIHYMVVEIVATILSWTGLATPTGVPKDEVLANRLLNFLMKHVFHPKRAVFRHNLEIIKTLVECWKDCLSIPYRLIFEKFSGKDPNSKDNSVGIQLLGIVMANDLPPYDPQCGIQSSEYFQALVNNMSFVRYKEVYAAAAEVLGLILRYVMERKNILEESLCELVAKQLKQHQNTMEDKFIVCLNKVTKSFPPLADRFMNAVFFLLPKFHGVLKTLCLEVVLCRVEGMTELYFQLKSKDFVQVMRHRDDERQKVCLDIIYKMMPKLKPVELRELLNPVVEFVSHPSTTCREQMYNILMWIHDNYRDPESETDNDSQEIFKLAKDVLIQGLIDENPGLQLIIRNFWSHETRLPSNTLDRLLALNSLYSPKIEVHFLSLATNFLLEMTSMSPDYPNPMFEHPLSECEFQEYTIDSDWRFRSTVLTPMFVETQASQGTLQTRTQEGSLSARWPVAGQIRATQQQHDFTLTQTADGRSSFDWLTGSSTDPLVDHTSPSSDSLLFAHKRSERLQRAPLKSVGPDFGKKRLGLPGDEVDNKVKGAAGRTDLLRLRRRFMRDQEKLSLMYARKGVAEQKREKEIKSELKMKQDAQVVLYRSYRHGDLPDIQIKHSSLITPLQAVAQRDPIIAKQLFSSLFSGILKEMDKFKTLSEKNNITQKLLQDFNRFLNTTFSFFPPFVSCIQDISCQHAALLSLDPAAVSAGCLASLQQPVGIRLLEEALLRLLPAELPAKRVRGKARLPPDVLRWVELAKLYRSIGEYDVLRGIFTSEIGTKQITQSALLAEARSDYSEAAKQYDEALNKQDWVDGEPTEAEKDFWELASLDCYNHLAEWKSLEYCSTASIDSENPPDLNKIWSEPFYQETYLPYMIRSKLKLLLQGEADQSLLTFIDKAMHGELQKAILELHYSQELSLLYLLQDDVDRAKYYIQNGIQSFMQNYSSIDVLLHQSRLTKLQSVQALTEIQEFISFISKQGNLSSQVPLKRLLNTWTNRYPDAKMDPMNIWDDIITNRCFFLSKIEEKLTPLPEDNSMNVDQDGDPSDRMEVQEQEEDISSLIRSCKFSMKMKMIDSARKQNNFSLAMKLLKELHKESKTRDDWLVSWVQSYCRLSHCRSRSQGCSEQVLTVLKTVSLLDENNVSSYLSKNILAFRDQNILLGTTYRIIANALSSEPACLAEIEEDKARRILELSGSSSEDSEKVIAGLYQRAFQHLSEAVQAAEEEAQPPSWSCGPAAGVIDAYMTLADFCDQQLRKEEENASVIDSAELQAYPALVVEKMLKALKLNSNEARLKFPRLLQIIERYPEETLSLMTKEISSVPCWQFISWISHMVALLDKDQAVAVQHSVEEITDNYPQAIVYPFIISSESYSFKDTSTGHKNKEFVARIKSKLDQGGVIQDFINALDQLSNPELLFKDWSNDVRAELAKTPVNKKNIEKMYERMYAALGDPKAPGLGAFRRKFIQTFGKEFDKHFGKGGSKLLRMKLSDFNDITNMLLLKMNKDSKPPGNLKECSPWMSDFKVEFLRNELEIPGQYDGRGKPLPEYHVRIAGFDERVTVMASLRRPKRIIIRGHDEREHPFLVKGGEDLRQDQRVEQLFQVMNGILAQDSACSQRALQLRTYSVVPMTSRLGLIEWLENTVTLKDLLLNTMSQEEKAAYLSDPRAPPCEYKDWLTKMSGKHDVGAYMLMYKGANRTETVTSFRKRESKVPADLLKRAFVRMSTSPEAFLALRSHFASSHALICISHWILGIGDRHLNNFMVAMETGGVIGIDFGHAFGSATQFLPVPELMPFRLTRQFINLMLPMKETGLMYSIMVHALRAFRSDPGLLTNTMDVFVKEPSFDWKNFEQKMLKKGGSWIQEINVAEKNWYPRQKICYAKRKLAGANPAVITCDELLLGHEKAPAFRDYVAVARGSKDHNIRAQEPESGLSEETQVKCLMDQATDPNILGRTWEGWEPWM
# Cyclin-dependent kinase 5 (Homo sapiens), sequence (Q00535 whole entry, looked up): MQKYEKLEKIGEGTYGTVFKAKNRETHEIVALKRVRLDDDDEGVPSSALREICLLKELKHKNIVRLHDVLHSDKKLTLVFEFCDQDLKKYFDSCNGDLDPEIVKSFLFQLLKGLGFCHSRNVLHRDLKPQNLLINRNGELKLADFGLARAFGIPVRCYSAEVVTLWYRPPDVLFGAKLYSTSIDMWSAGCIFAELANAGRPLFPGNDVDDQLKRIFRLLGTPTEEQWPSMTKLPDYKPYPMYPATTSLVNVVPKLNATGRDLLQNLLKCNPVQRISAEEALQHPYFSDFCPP
# Mitogen-activated protein kinase 3 (Homo sapiens), sequence (P27361 whole entry): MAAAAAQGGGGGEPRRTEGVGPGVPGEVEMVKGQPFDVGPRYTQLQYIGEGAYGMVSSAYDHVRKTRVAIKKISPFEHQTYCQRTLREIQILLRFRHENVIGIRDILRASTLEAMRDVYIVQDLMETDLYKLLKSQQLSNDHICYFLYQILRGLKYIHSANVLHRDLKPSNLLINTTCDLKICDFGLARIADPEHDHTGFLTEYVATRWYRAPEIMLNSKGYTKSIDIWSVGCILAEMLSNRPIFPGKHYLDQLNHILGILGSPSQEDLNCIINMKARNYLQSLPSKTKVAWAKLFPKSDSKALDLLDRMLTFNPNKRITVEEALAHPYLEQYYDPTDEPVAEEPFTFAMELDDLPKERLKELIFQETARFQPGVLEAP
smiles,measurement,setting,value
N[C@H]1CC[C@H](Nc2nc(Nc3ccc(P(=O)(O)CP(=O)(O)O)cc3)c3ncn(C4CCCC4)c3n2)CC1,Selectivity,[1],10
same,Selectivity,[2],100
same,Selectivity,[3],> 500
same,Selectivity,[4],1
same,Selectivity,[5],> 500
same,Selectivity,[6],> 500
same,Selectivity,[7],> 500
same,Selectivity,[8],> 500
same,Selectivity,[9],> 500
same,Selectivity,[10],> 500
same,Selectivity,[11],> 500
same,Selectivity,[12],> 500
same,Selectivity,[13],10
same,Selectivity,[14],100
same,Selectivity,[15],10
same,Selectivity,[16],> 500
same,Selectivity,[17],> 500
same,Selectivity,[18],100
same,Selectivity,[19],> 500
same,Selectivity,[20],> 500
same,K',[21],2.5
same,Selectivity,[22],> 500
same,Selectivity,[23],> 500
same,Selectivity,[24],> 500
CN(C)CCNc1nc(Nc2ccccc2)c2ncn(C3CCCC3)c2n1,K',[21],0
N[C@H]1CC[C@H](Nc2nc(Nc3ccc(P(=O)(O)O)c(P(=O)(O)O)c3)c3ncn(C4CCCC4)c3n2)CC1,K',[21],1.8
CC(C)[C@H](CO)Nc1nc(Nc2cccc(Cl)c2)c2ncn(C(C)C)c2n1 [PURVALANOLA],IC50,[25],4 nM
O=P(O)(O)CP(=O)(O)CCCNc1nc(Nc2ccccc2)c2ncn(C3CCCC3)c2n1,K',[21],2.3
N[C@H]1CC[C@H](Nc2nc(Nc3ccccc3)c3ncn(C4CCCC4)c3n2)CC1,K',[21],0
N[C@H]1CC[C@H](Nc2nc(Nc3ccc(C(P(=O)(O)O)P(=O)(O)O)cc3)c3ncn(C4CCCC4)c3n2)CC1,K',[21],3.3
O=P(O)(O)C(O)(CCCNc1nc(Nc2ccccc2)c2ncn(C3CCCC3)c2n1)P(=O)(O)O,K',[21],3.6

# From ChEMBL document CHEMBL1136209, “Bone-targeted 2,6,9-trisubstituted purines: novel inhibitors of Src tyrosine kinase for the treatment of bone diseases” (Bioorg Med Chem Lett, 2003)
